The target of assay [1] is T1, recombinant human Wee1A kinase (Homo sapiens, UniProt P30291).
T1 construct: full length Wee1 kinase was expressed by baculovirus in insect cells; purchased Invitrogen PV3817; host or cells: insect cells (baculovirus)
Kind of assay: Wee1A kinase binding assay (LanthaScreen Eu time-resolved FRET). An outline of the steps: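 Full-length, baculovirus-expressed GST-tagged Wee1A (5 nM) was mixed with 2 nM Eu-anti-GST antibody, 30 nM kinase tracer 178 and compound (1% DMSO). Buffer was 50 mM HEPES pH 7.5, 10 mM MgCl2, 1 mM EGTA, 0.01% Brij-35, incubated 60 min at room temperature. TR-FRET 665/615 nm emission ratios from duplicates were curve-fitted.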
Background: TR-FRET usually uses a lanthanide donor and a delayed reading to cut background.

Assay [2] has as its target T2, Myt1 kinase (recombinant PMYT-1) (Homo sapiens, UniProt Q99640).
T2 construct: full length PMYT-1 was expressed by baculovirus in insect cells; purchased Invitrogen A30984; host or cells: insect cells (baculovirus)
T2 sequence (Q99640 1-499): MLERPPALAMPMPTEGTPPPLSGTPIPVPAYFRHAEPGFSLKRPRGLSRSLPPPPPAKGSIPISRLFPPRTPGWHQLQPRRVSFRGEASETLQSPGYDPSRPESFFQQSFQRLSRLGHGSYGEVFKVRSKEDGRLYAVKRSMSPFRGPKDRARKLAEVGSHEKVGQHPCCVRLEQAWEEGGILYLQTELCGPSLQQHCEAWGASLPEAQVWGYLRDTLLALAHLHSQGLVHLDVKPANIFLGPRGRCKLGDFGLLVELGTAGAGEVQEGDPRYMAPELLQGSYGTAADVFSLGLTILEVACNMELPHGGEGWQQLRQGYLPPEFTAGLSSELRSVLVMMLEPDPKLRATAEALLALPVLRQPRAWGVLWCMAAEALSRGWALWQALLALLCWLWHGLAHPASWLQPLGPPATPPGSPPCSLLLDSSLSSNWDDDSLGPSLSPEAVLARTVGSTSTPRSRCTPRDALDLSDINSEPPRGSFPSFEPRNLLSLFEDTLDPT
Kind of assay: Myt1 kinase binding assay (LanthaScreen Eu Kinase Binding Assay). An outline of the steps: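 The binding affinity of compounds for Myt1 kinase was measured with a LanthaScreen Europium (Eu) Kinase Binding Assay, a time-resolved FRET format in which test compounds compete against a labeled kinase tracer, and the results were expressed as IC50 values describing compound binding to Myt1.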

Assay [3] has as its target T3, Wee1A kinase (CDK1 Tyr15 phosphorylation in ACHN renal cell carcinoma cells) (Homo sapiens, UniProt P30291).
T3 construct: pCDK1 Tyr15 immunofluorescence read-out
Kind of assay: High-content imaging of pCdk1 Y15, Wee1A kinase target engagement in ACHN cells. The assay is classed as cell-based. An outline of the steps:
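ACHN cells exposed to compound for 4 h over 7–5,000 nM or 0.3–200 nM, then fixed and immunostained for pCDK1 Y15 with DAPI nuclear counterstain. The percentage of pCdk1 Y15 nucleus-positive cells relative to DMSO control was imaged per well; EC50 from dose-response curves.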

Assay [4] has as its system ACHN cells. Kind of assay: Cell Titer Glo viability assay, ACHN cells. The assay is classed as cell-based. The following applies: Homo sapiens, 144 h, absolute EC50. An outline of the steps:
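Cells grown in MEM with 10% FCS were seeded at 500 (A427), 400 (ACHN) or 250 (DAOY) per well and treated the next day with compound at 17 to 10 000 nM. Viability relative to untreated control was read at 144 h by CellTiter-Glo 2.0.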
In general terms: Cellular ATP, detected with luciferase, serves as a proxy for viable cell number.

Setting [5] is: 30 nM tracer 178, 5 nM Wee1A kinase, 2 nM Eu-labeled antibody, 60 minutes at room temperature, read-out: Wee1A kinase Binding IC50.
[6] abbreviates: 3 nM tracer 178, 2.5 nM PMYT-1, 1 nM Eu-labeled antibody, read-out: Myt1 kinase Binding IC50.
Setting [7] is: 4 h treatment, nuclear positivity for pCdk1 Y15 vs DMSO control, read-out: CDK1 Tyr15 Phosphorylation EC50.

The structures appear in SMILES notation. Like-named read-outs stand apart in the source and are kept apart here.

T1 sequence (P30291 whole entry): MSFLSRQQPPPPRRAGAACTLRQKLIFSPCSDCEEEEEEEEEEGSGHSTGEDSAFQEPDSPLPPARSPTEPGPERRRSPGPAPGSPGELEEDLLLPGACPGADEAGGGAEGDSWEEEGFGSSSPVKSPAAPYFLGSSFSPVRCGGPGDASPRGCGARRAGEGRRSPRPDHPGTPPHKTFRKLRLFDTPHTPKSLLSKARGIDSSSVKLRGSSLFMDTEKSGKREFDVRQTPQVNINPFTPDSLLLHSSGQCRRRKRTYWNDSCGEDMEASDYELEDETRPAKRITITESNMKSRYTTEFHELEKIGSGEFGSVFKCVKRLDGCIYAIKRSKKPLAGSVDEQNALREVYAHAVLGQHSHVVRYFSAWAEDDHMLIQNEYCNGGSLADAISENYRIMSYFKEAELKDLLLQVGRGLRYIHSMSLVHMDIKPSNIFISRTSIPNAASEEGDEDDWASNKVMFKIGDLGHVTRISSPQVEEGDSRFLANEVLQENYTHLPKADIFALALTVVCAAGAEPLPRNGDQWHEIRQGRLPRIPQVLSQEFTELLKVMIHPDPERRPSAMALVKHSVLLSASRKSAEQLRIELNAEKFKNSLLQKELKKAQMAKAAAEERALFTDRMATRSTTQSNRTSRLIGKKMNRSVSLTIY
T3 sequence (P30291 whole entry): as above

As for `C=CCn1c(=O)c2cnc(Nc3ccc4c(cnn4C)c3)nc2n1-c1cccc(NC2CCN(C)CC2)c1` [Compound 226, 2-allyl-6-(1-methyl-1H-indazol-5-ylamino)-1-[m-(1-methyl-4-piperidylamino)phenyl]-1,2-dihydro-3H-1,2,5,7-tetraazainden-3-one], the half-maximal inhibitory concentration (IC50) in assay [1] (setting [5]) is < 0.01 µM; in assay [2] (setting [6]), > 0.5 µM. The concentration giving a half-maximal response (EC50) is < 0.1 µM in assay [3] (setting [7]) and 0.1 to 0.5 µM in assay [4].

`C=CCn1c(=O)c2cnc(Nc3ccc(OCC(F)(F)F)cc3)nc2n1-c1cccc(NC2CCN(C)CC2)n1` [Compound 139, 2-allyl-1-[6-(1-methyl-4-piperidylamino)-2-pyridyl]-6-[p-(2,2,2-trifluoroethoxy)phenylamino]-1,2-dihydro-3H-1,2,5,7-tetraazainden-3-one]: the results for the half-inhibitory concentration (IC50) in assay [1] (setting [5]) and in assay [2] (setting [6]) were < 0.01 µM and 0.1 to 0.5 µM, respectively. Further, the EC50 in assay [3] (setting [7]) and in assay [4] was 0.1 to 0.5 µM throughout.

Regarding `C=CCn1c(=O)c2cnc(Nc3ccc(Cl)cc3)nc2n1-c1cccc(N(C)C2CCN(C)CC2)n1` [Compound 157, 6-[(4-chlorophenyl)amino]-1-{6-[methyl(1-methylpiperidin-4-yl)amino]pyridin-2-yl}-2-(prop-2-en-1-yl)-1H,2H,3H-pyrazolo[3,4-d]pyrimidin-3-one], the IC50 in assay [1] is < 0.01 µM; in assay [2] (Myt1 kinase Binding IC50, 3 nM tracer 178, 2.5 nM PMYT-1, 1 nM Eu-labeled antibody) it was > 0.5 µM. Besides, the EC50 fell in the range of 0.1 to 0.5 µM in assay [3] (read-out: CDK1 Tyr15 Phosphorylation EC50, 4 h treatment, nuclear positivity for pCdk1 Y15 vs DMSO control) and 0.1 to 0.5 µM in assay [4].

For `C=CCn1c(=O)c2cnc(Nc3ccc(OCC(F)(F)F)cc3)nc2n1-c1ccnc(NC2CCN(C)CC2)n1` [Compound 314, 2-allyl-1-[2-(1-methyl-4-piperidylamino)-4-pyrimidinyl]-6-[p-(2,2,2-trifluoroethoxy)phenylamino]-1,2-dihydro-3H-1,2,5,7-tetraazainden-3-one], the concentration for half-maximal inhibition (IC50) in assay [1] (setting [5]) is < 0.01 µM; in assay [2] (setting [6]), 0.02 to 0.1 µM. The EC50 in assay [3] (setting [7]) was < 0.1 µM; in assay [4], ≤ 0.1 µM.

On to `C=CCn1c(=O)c2cnc(Nc3ccc(OCC(F)(F)F)cc3)nc2n1-c1cccc(OC2CCNCC2)n1` [Compound 227, 2-allyl-1-[6-(4-piperidyloxy)-2-pyridyl]-6-[p-(2,2,2-trifluoroethoxy)phenylamino]-1,2-dihydro-3H-1,2,5,7-tetraazainden-3-one], for which the IC50 is < 0.01 µM in assay [1] (setting [5]) and < 0.02 µM in assay [2] (setting [6]). Further, the 50% effective concentration (EC50) in assay [3] (setting [7]) is < 0.1 µM; in assay [4] it was ≤ 0.1 µM.

As for `C=CCn1c(=O)c2cnc(Nc3ccc4nc(C)oc4c3)nc2n1-c1cccc(OC2CCNCC2)n1` [Compound 316, 2-allyl-6-(2-methyl-1,3-benzoxazol-6-ylamino)-1-[6-(4-piperidyloxy)-2-pyridyl]-1,2-dihydro-3H-1,2,5,7-tetraazainden-3-one], the 50% inhibitory concentration (IC50) was < 0.01 µM in assay [1] (setting [5]) and 0.02 to 0.1 µM in assay [2] (setting [6]). Besides, the EC50 in assay [3] (setting [7]) was < 0.1 µM; in assay [4] it was 0.1 to 0.5 µM.

Take `C=CCn1c(=O)c2cnc(Nc3ccc4ccncc4c3)nc2n1-c1cccc(OC2CCNCC2)n1` [Compound 240, 2-allyl-6-(7-isoquinolylamino)-1-[6-(4-piperidyloxy)-2-pyridyl]-1,2-dihydro-3H-1,2,5,7-tetraazainden-3-one]: the half-inhibitory concentration (IC50) in assay [1] (setting [5]) is < 0.01 µM; in assay [2] (setting [6]) it was 0.02 to 0.1 µM. For the same compound, the EC50 in assay [3] (setting [7]) and in assay [4] was 0.1 to 0.5 µM throughout.

Take `CCn1c(=O)c2cnc(Nc3ccc4c(c3)ncn4C)nc2n1-c1cccc(OC2CCN(C)CC2)n1` [Compound 235, 2-ethyl-6-((1-methyl-1H-benzo[d]imidazol-5-yl)amino)-1-(6-((1-methylpiperidin-4-yl)oxy)pyridin-2-yl)-1,2-dihydro-3H-pyrazolo[3,4-d]pyrimidin-3-one]: the IC50 in assay [1] (setting [5]) is < 0.01 µM; in assay [2] (setting [6]), 0.02 to 0.1 µM. Also, the EC50 in assay [3] (setting [7]) is < 0.1 µM; in assay [4] it was ≤ 0.1 µM.

In the case of `C=CCn1c(=O)c2cnc(Nc3ccc4scnc4c3)nc2n1-c1cccc(OC2CCNCC2)n1` [Compound 246, 2-allyl-6-(benzo[d]thiazol-5-ylamino)-1-(6-(piperidin-4-yloxy)pyridin-2-yl)-1,2-dihydro-3H-pyrazolo[3,4-d]pyrimidin-3-one], the figures for the IC50 in assay [1] (setting [5]) and in assay [2] (setting [6]) were < 0.01 µM and < 0.02 µM, respectively. Moreover, the concentration giving a half-maximal response (EC50) in assay [3] (setting [7]) is < 0.1 µM; in assay [4], 0.1 to 0.5 µM.

Regarding `C=CCn1c(=O)c2cnc(Nc3ccc4c(cnn4C)c3)nc2n1-c1cccc(OC2CCN(C)CC2)c1` [Compound 220, 2-allyl-6-(1-methyl-1H-indazol-5-ylamino)-1-[m-(1-methyl-4-piperidyloxy)phenyl]-1,2-dihydro-3H-1,2,5,7-tetraazainden-3-one], the results for the IC50 in assay [1] (setting [5]) and in assay [2] (setting [6]) were < 0.01 µM and 0.1 to 0.5 µM, respectively. The EC50 in assay [3] (setting [7]) was < 0.1 µM; in assay [4], ≤ 0.1 µM.

On to `C=CCn1c(=O)c2cnc(Nc3ccc4c(cnn4C)c3)nc2n1-c1cccc(N[C@@H]2CCNC2)n1` [Compound 102, 1-{6-[(R)-3-pyrrolidinylamino]-2-pyridyl}-2-allyl-6-(1-methyl-1H-indazol-5-ylamino)-1,2-dihydro-3H-1,2,5,7-tetraazainden-3-one], for which the half-maximal inhibitory concentration (IC50) is < 0.01 µM in assay [1] (setting [5]) and 0.02 to 0.1 µM in assay [2] (setting [6]). Besides, the EC50 in assay [3] (setting [7]) and in assay [4] was > 1 µM in each case.

As for `CCn1c(=O)c2cnc(Nc3ccc4c(cnn4C)c3)nc2n1-c1cccc(NC2CCN(C)CC2)n1` [Compound 288, 2-ethyl-6-[(1-methyl-1H-indazol-5-yl)amino]-1-{6-[(1-methylpiperidin-4-yl)amino]pyridin-2-yl}-1H,2H,3H-pyrazolo[3,4-d]pyrimidin-3-one], the IC50 in assay [1] (setting [5]) was < 0.01 µM; in assay [2] (setting [6]), > 0.5 µM. Further, the concentration giving a half-maximal response (EC50) is < 0.1 µM in assay [3] (setting [7]) and 0.1 to 0.5 µM in assay [4].

In the case of `C=CCn1c(=O)c2cnc(Nc3ccc4c(cnn4C)c3)nc2n1-c1cccc(N[C@H]2CCN(C)C2)n1` [Compound 108, 1-{6-[(S)-1-methyl-3-pyrrolidinylamino]-2-pyridyl}-2-allyl-6-(1-methyl-1H-indazol-5-ylamino)-1,2-dihydro-3H-1,2,5,7-tetraazainden-3-one], the IC50 in assay [1] (setting [5]) is < 0.01 µM; in assay [2] (setting [6]), 0.02 to 0.1 µM. Also, the EC50 in assay [3] (setting [7]) is < 0.1 µM; in assay [4], 0.1 to 0.5 µM.

In the case of `C=CCn1c(=O)c2cnc(Nc3cnn(CCC)c3)nc2n1-c1cccc(OC2CCN(C)CC2)n1` [Compound 180, 2-allyl-1-[6-(1-methyl-4-piperidyloxy)-2-pyridyl]-6-(1-propyl-4-pyrazolylamino)-1,2-dihydro-3H-1,2,5,7-tetraazainden-3-one], the figures for the IC50 in assay [1] (setting [5]) and in assay [2] (setting [6]) were < 0.01 µM and 0.1 to 0.5 µM, respectively. Further, the concentration for a half-maximal effect (EC50) in assay [3] (setting [7]) was < 0.1 µM; in assay [4], ≤ 0.1 µM.

One may read the IC50 as the concentration at which inhibition is half-maximal. Usually EC50 stands for the midpoint of the concentration-response curve.

For the origin of these results see patent US20260364080A1, “PYRAZOLO-PYRIMIDINONE COMPOUNDS FOR USE IN METHODS OF INHIBITING WEE1 A KINASE” (Acrivon Therapeutics, Inc., priority 2023, published 2026).
